Data: US7687079B2, “Methods of treating ileus” (priority 2002, dated 2010)

Legend:
Format in all cases: in vivo, mouse
[1] = general observations after intestinal manipulation and CO exposure; settings: mice, CO 250 ppm, 1 hour before and 24 hours after laparotomy
Excerpt: Surgical Manipulation. Mice were anesthetized with inhaled isoflurane and the abdomen opened by midline laparotomy. The small intestine was eventrated and gently compressed along its entire length using moistened sterile cotton applicators. This procedure is designed to simulate “running” of the bowel commonly performed during abdominal surgery in the clinical setting. The bowel was repositioned in the abdominal cavity and the incision closed by two layers of continuous sutures. The duration of the procedure was approximately 15 minutes and the animals moved freely about their cage within 20 minutes of withdrawal of anesthetic.
CO Inhalation Treatment. Mice housed in cages were placed in plexiglass chambers that were continuously ventilated with air or with air containing CO (250 ppm). A sampling port was provided to continuously monitor carbon monoxide concentrations within the chamber. Animals had free access to food and water at all times. Mice were exposed to CO or air 1 hour prior to laparotomy, removed for surgical manipulation, and then returned to the chamber for 24 hours. Mice not undergoing surgery were removed from the chamber for a similar length of time and then returned to the chamber for 24 hours.

[2] = test system: COX-2 mRNA; test: COX-2 mRNA in muscularis after IM (real time RT-PCR)
Description: Pro- and anti-inflammatory gene expression was determined by real time RT-PCR. The small intestinal muscularis externa was collected at 4 time points (3, 6, 12, and 24 hr) postoperatively and snap frozen in liquid nitrogen. Total RNA extraction was performed using the guanidium-thiocyanate phenol-chloroform extraction method as described in Eskandari et al. (Id.) RNA pellets were resuspended in RNA-secure resuspension solution (Ambion Inc., Austin, Tex.), followed by removal of potential contaminating DNA by treatment with DNase I (DNA-Free Kit, Ambion Inc., Austin, Tex.). Equal aliquots (5 μg) of total RNA from each sample were quantified by spectrophotometry (wavelength […]). Peak mRNA expression was quantified in duplicate by SYBR Green two-step, real-time RT-PCR. β-actin was used as the endogenous reference. Aliquoted RNA (40 ng) was subjected to first-strand complementary DNA (cDNA) synthesis using random hexamers (PE applied Biosystems, Foster City, Calif.) and Super Script II (Life Technologies, Rockville, Md.). Primers were taken from the literature or designed according to published sequences (Table 3). PCR reaction mixture was prepared using SYBR Green PCR Core Reagents (PE Applied Biosystems). Each sample was estimated in duplicate using the conditions recommended by the manufacturer. Real-time PCR data were plotted as the ΔRn fluorescence signal versus the cycle number. An arbitrary threshold was set to the midlinear portion of the log ΔRn cycle plot. The threshold cycle (CT) is defined as the cycle number at which the ΔRn, crosses this threshold. Quantification of mRNA expression was normalized to β-actin and calculated relative to control using the comparative CT method.
To exclude PCR amplification of contaminating genomic DNA, RT-negative controls (samples containing RNA which was not reverse transcribed) were included in each PCR reaction. Melting curve analyses were performed for each reaction to ensure amplification of specific product. […] PCR amplification efficiency of each target cDNA was measured by determining the colinearity of serial dilutions. […]

[3] = test system: circular muscle strip; test: Example 3 circular muscle strip contractions in response to bethanechol after IM; settings: IM+CO mice (250 and 500 ppm), bethanechol 100 μM, 24 hours
Description: (§1) Ileus was induced in mice by gentle manipulation of the small intestine. An incision was made to expose the abdominal cavity of the mouse, and bowel manipulation was performed by gentle poking and prodding of the small intestine (see, e.g., Schwarz et al., Gastroenterology 121(6):1354-1357 (2001)). The incision was subsequently closed, and analyses were performed 24 hours later. Mice were exposed to CO by inhalation (250 and 500 ppm) for 1 hour immediately prior to intestinal manipulation and during the entire 24-hour recovery period. Intestinal contractility was assessed in vitro by measuring circular muscle strip contractions in response to bethanechol (0.3-300 μM) and in vivo by determining intestinal transit from the distribution of orally-fed, fluorescein-labeled dextran and calculating geometric center as described in Example 1 above. HO-1 and IL-10 mRNA expression were determined by SYBR green real time RT-PCR from extracts of muscularis extemae, as described in Example 1 above. Release of nitric oxide (NO), a potent inhibitor of smooth muscle contractility, was estimated by measuring serum total nitrite, also described in Example 1 above.

[4] = test system: mice with ileus induced by manipulation of the small intestine; test: Example 3 intestinal transit, geometric center after IM; settings: IM+CO mice (250 and 500 ppm), 24 hours
Description: as §1

Structure (SMILES): [C-]#[O+] [CO, carbon monoxide]
- mortality or morbidity associated with the CO exposure regime [1]: No mortality or morbidity
- IM-induced COX-2 gene expression ([2]; IM + CO, 3 or 6 hr time points): no effect
- COX-2 mRNA expression ([2]; control animals, CO inhalation, 3 hr post-treatment): significantly increased
- induction of COX-2 message ([2]; unoperated control mice, CO inhalation alone, 3 hr): 2.5 fold
- peak contractile force [3]: 1.9±0.5 g/s/mm^2
- geometric center [4]: 6.3±0.8
